In PubChem BioAssay AID248 (DTP/NCI, 2004):
Values joined by “and” are separate entries in the source; they are usually repeats but may differ in a detail not shown here. Identical values can stand only once. Toxic doses and inconclusive results are not listed. Cut-off read from the data, not from the text of the source: active = T/C of 150% or more; inactive = T/C below 125%.

Tested on: L1210 leukemia ip in BDF1 mice, survival T/C
Assay: NCI In Vivo Anticancer Drug Screen. Data for tumor model L1210 Leukemia (intraperitoneal) in B6D2F1 (BDF1) mice
Details: endpoint: mean survival time, higher = longer survival
Outline: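 Each compound was tested against a transplantable tumor grown in mice. The endpoint was survival, with treated animals benchmarked against vehicle controls as a simple ratio.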

[1] = dose: 100.0 mg/kg/injection, schedule: Q04DX003 (ip), vehicle: Klucel (hydroxypropylcellulose) (HPC)
[2] = dose: 200.0 mg/kg/injection, schedule: Q04DX003 (ip), vehicle: Klucel (hydroxypropylcellulose) (HPC)
[3] = dose: 400.0 mg/kg/injection, schedule: Q04DX003 (ip), vehicle: Klucel (hydroxypropylcellulose) (HPC)
[4] = dose: 100.0 mg/kg/injection, schedule: Q01DX001 (ip), vehicle: carboxymethylcellulose (CMC)
[5] = dose: 200.0 mg/kg/injection, schedule: Q01DX001 (ip), vehicle: carboxymethylcellulose (CMC)
[6] = dose: 400.0 mg/kg/injection, schedule: Q01DX001 (ip), vehicle: carboxymethylcellulose (CMC)
[7] = dose: 100.0 mg/kg/injection, schedule: Q04DX003 (ip), vehicle: saline
[8] = dose: 100.0 mg/kg/injection, schedule: Q01DX001 (ip), vehicle: other
[9] = dose: 200.0 mg/kg/injection, schedule: Q01DX001 (ip), vehicle: other
[10] = dose: 400.0 mg/kg/injection, schedule: Q01DX001 (ip), vehicle: other

Measured: T/C

CCC(=O)NC1CC(OC2CC(O)(C(C)=O)Cc3c(O)c4c(c(O)c32)C(=O)c2c(OC)cccc2C4=O)OC(C)C1O (stereo unspecified)
inactive: dose: 2.0 mg/kg/injection, schedule: Q04DX003 (ip), vehicle: water 104 % of control | dose: 3.12 mg/kg/injection, schedule: Q01DX009 (ip), vehicle: saline with Tween-80 96 % of control | dose: 4.0 mg/kg/injection, schedule: Q04DX003 (ip), vehicle: water 105 % of control | dose: 6.25 mg/kg/injection, schedule: Q01DX009 (ip), vehicle: saline with Tween-80 105 % of control | dose: 8.0 mg/kg/injection, schedule: Q04DX003 (ip), vehicle: water 103 % of control | dose: 12.5 mg/kg/injection, schedule: Q01DX009 (ip), vehicle: saline with Tween-80 105 % of control | dose: 16.0 mg/kg/injection, schedule: Q04DX003 (ip), vehicle: water 101 % of control and 102 % of control | dose: 18.75 mg/kg/injection, schedule: Q04DX003 (ip), vehicle: saline with Tween-80 105 % of control | dose: 25.0 mg/kg/injection, schedule: Q01DX009 (ip), vehicle: saline with Tween-80 111 % of control | dose: 32.0 mg/kg/injection, schedule: Q04DX003 (ip), vehicle: water 116 % of control | dose: 37.5 mg/kg/injection, schedule: Q04DX003 (ip), vehicle: saline with Tween-80 105 % of control | dose: 50.0 mg/kg/injection, schedule: Q01DX009 (ip), vehicle: saline with Tween-80 113 % of control | dose: 64.0 mg/kg/injection, schedule: Q04DX003 (ip), vehicle: water 112 % of control | dose: 75.0 mg/kg/injection, schedule: Q04DX003 (ip), vehicle: saline with Tween-80 105 % of control | dose: 150.0 mg/kg/injection, schedule: Q04DX003 (ip), vehicle: saline with Tween-80 122 % of control | dose: 125.0 micrograms/kg/injection, schedule: Q04DX003 (ip), vehicle: water 100 % of control | dose: 250.0 micrograms/kg/injection, schedule: Q04DX003 (ip), vehicle: water 102 % of control | dose: 500.0 micrograms/kg/injection, schedule: Q04DX003 (ip), vehicle: water 97 % of control | dose: 1000.0 micrograms/kg/injection, schedule: Q04DX003 (ip), vehicle: water 103 % of control | dose: 2000.0 micrograms/kg/injection, schedule: Q04DX003 (ip), vehicle: water 96 % of control

C=CC[n+]1ccccc1/C=C/c1ccc(OC)c(OC)c1
inactive: dose: 3.12 mg/kg/injection, schedule: Q01DX009 (ip), vehicle: Klucel (hydroxypropylcellulose) (HPC) 106 % of control | dose: 3.12 mg/kg/injection, schedule: Q04DX003 (ip), vehicle: Klucel (hydroxypropylcellulose) (HPC) 105 % of control | dose: 6.25 mg/kg/injection, schedule: Q01DX009 (ip), vehicle: Klucel (hydroxypropylcellulose) (HPC) 106 % of control | dose: 6.25 mg/kg/injection, schedule: Q04DX003 (ip), vehicle: Klucel (hydroxypropylcellulose) (HPC) 100 % of control | dose: 12.5 mg/kg/injection, schedule: Q01DX009 (ip), vehicle: Klucel (hydroxypropylcellulose) (HPC) 98 % of control | dose: 12.5 mg/kg/injection, schedule: Q04DX003 (ip), vehicle: Klucel (hydroxypropylcellulose) (HPC) 94 % of control and 100 % of control

NC(N)=Nc1ccc(Cc2ccc(N=C(N)N)cc2)cc1
inactive: dose: 12.5 mg/kg/injection, schedule: Q01DX Z (oral), vehicle: saline 105 % of control | dose: 25.0 mg/kg/injection, schedule: Q01DX Z (oral), vehicle: saline 103 % of control | dose: 50.0 mg/kg/injection, schedule: Q01DX Z (oral), vehicle: saline 94 % of control | dose: 100.0 mg/kg/injection, schedule: Q01DX Z (oral), vehicle: saline 93 % of control

c1ccc(SC23CC4CC(CC(C4)C2)C3)nc1
inactive: dose: 100.0 mg/kg/injection, schedule: Q01DX003 (ip), vehicle: Klucel (hydroxypropylcellulose) (HPC) 100 % of control | [1] 94 % of control | dose: 200.0 mg/kg/injection, schedule: Q01DX003 (ip), vehicle: Klucel (hydroxypropylcellulose) (HPC) 89 % of control | [2] 91 % of control | dose: 400.0 mg/kg/injection, schedule: Q01DX003 (ip), vehicle: Klucel (hydroxypropylcellulose) (HPC) 94 % of control | [3] 102 % of control

CCN(CC)c1ccc(/C=C2/C=Cc3ccccc32)cc1
inactive: [4] 92 % of control | [5] 90 % of control | [6] 95 % of control

CNc1ccc(/C=C2\C=Cc3ccccc32)cc1I
inactive: [4] 95 % of control | [5] 95 % of control | [6] 101 % of control

NS(=O)(=O)c1ccc(Br)cc1
inactive: dose: 25.0 mg/kg/injection, schedule: Q04DX003 (ip), vehicle: saline 106 % of control | dose: 50.0 mg/kg/injection, schedule: Q04DX003 (ip), vehicle: saline 97 % of control | [7] 100 % of control | dose: 150.0 mg/kg/injection, schedule: Q04DX003 (ip), vehicle: saline 105 % of control | dose: 225.0 mg/kg/injection, schedule: Q04DX003 (ip), vehicle: saline 102 % of control | dose: 335.0 mg/kg/injection, schedule: Q04DX003 (ip), vehicle: saline 105 % of control

O=C(O)CCC(=O)NNC(=O)Cc1c[nH]c2ccccc12
inactive: [8] 106 % of control | dose: 100.0 mg/kg/injection, schedule: Q04DX003 (ip), vehicle: other 95 % of control | [9] 106 % of control | dose: 200.0 mg/kg/injection, schedule: Q04DX003 (ip), vehicle: other 94 % of control | [10] 97 % of control | dose: 400.0 mg/kg/injection, schedule: Q04DX003 (ip), vehicle: other 94 % of control

CCCN(CCC)CC(C)O (stereo unspecified)
inactive: [7] 93 % of control | dose: 200.0 mg/kg/injection, schedule: Q04DX003 (ip), vehicle: saline 97 % of control

CCOC(CN=Cc1cc(C)c2[nH]c3ccc(OC)cc3c2c1C)OCC
inactive: [8] 96 % of control | [1] 98 % of control | [9] 102 % of control | [2] 96 % of control | [10] 98 % of control | [3] 96 % of control

Cc1ccc(C(=O)CC(C(=O)c2ccccc2)c2ccccc2)cc1 (stereo unspecified)
inactive: dose: 75.0 mg/kg/injection, schedule: Q01DX009 (ip), vehicle: Klucel (hydroxypropylcellulose) (HPC) 92 % of control | [1] 94 % of control | dose: 150.0 mg/kg/injection, schedule: Q01DX009 (ip), vehicle: Klucel (hydroxypropylcellulose) (HPC) 95 % of control | [2] 104 % of control | dose: 300.0 mg/kg/injection, schedule: Q01DX009 (ip), vehicle: Klucel (hydroxypropylcellulose) (HPC) 95 % of control | [3] 98 % of control

C=C(C)c1ccc(C)c(C)c1
inactive: dose: 25.0 mg/kg/injection, schedule: Q04DX003 (ip), vehicle: saline with Tween-80 100 % of control | dose: 50.0 mg/kg/injection, schedule: Q04DX003 (ip), vehicle: saline with Tween-80 106 % of control | dose: 100.0 mg/kg/injection, schedule: Q04DX003 (ip), vehicle: saline with Tween-80 94 % of control | dose: 200.0 mg/kg/injection, schedule: Q04DX003 (ip), vehicle: saline with Tween-80 95 % of control | dose: 400.0 mg/kg/injection, schedule: Q04DX003 (ip), vehicle: saline with Tween-80 90 % of control

C(=N/N=C/c1ccccn1)/c1cccnc1
inactive: [4] 94 % of control | [5] 96 % of control | [6] 96 % of control

O=C1CN=C(c2ccccc2)c2cc(Cl)ccc2N1
inactive: dose: 25.0 mg/kg/injection, schedule: Q01DX009 (ip), vehicle: Klucel (hydroxypropylcellulose) (HPC) 92 % of control | dose: 50.0 mg/kg/injection, schedule: Q01DX009 (ip), vehicle: Klucel (hydroxypropylcellulose) (HPC) 94 % of control | dose: 100.0 mg/kg/injection, schedule: Q01DX009 (ip), vehicle: Klucel (hydroxypropylcellulose) (HPC) 89 % of control | dose: 100.0 mg/kg/injection, schedule: Q04DX002 (ip), vehicle: Klucel (hydroxypropylcellulose) (HPC) 106 % of control | dose: 200.0 mg/kg/injection, schedule: Q01DX009 (ip), vehicle: Klucel (hydroxypropylcellulose) (HPC) 98 % of control | dose: 200.0 mg/kg/injection, schedule: Q04DX002 (ip), vehicle: Klucel (hydroxypropylcellulose) (HPC) 93 % of control | dose: 400.0 mg/kg/injection, schedule: Q04DX002 (ip), vehicle: Klucel (hydroxypropylcellulose) (HPC) 89 % of control

CCC(=O)c1c(C)[nH]c(C)c1C
inactive: dose: 100.0 mg/kg/injection, schedule: Q01DX001 (ip), vehicle: Klucel (hydroxypropylcellulose) (HPC) 96 % of control | dose: 200.0 mg/kg/injection, schedule: Q01DX001 (ip), vehicle: Klucel (hydroxypropylcellulose) (HPC) 95 % of control | dose: 400.0 mg/kg/injection, schedule: Q01DX001 (ip), vehicle: Klucel (hydroxypropylcellulose) (HPC) 96 % of control
